Data from ChEMBL document CHEMBL1129269, “1-aryl-4-[(1-tetralinyl)alkyl]piperazines: alkylamido and alkylamino derivatives. Synthesis, 5-HT1A receptor affinity, and selectivity. 3” (J Med Chem, 1996).

Assays:
[1] = molecular target: T1, 5-hydroxytryptamine receptor 1A (Rattus norvegicus, UniProt P19327); test: Binding affinity against 5-hydroxytryptamine 1A receptor in rat hippocampus membranes using [3H]8-OH-DPAT as radioligand; type: cell membranes, Membrane
T1 sequence (P19327 whole entry): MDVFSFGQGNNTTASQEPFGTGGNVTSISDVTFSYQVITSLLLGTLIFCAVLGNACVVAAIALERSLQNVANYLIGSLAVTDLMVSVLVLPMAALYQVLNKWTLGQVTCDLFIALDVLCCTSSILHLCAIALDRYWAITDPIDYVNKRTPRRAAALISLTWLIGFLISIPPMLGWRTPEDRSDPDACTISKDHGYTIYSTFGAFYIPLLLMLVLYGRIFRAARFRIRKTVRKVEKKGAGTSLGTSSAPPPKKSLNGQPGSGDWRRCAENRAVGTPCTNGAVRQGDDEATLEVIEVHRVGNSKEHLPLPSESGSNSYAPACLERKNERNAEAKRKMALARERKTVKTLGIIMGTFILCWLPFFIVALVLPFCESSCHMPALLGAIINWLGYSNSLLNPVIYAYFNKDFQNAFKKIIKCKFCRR

[2] = molecular target: Serotonin 2 (5-HT2) receptor (Rattus norvegicus, UniProt P30994+P08909+P14842); test: Binding affinity against 5-hydroxytryptamine 2 receptor in rat brain using [3H]ketanserin as radioligand; type: tissue-based
[3] = molecular target: T2, Adrenergic receptor alpha-2 (Rattus norvegicus, UniProt P22086+P19328+P22909); test: Binding affinity against Alpha-2 adrenergic receptor in rat brain membrane using [3H]yohimbine as radioligand; type: cell membranes
T2 sequence (P22086 whole entry): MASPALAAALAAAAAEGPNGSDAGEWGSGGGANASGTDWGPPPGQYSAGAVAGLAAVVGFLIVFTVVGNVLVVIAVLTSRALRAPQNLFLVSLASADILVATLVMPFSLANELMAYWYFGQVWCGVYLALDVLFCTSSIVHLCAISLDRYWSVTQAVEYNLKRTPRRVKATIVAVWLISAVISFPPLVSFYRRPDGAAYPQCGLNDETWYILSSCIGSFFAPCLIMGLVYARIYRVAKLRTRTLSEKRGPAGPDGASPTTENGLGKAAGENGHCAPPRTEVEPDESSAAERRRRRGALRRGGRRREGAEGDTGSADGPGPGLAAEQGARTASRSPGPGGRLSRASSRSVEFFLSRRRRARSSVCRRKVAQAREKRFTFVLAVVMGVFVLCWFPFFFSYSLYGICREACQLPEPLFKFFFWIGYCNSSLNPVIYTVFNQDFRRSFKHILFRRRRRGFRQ
T2 sequence (P19328 whole entry): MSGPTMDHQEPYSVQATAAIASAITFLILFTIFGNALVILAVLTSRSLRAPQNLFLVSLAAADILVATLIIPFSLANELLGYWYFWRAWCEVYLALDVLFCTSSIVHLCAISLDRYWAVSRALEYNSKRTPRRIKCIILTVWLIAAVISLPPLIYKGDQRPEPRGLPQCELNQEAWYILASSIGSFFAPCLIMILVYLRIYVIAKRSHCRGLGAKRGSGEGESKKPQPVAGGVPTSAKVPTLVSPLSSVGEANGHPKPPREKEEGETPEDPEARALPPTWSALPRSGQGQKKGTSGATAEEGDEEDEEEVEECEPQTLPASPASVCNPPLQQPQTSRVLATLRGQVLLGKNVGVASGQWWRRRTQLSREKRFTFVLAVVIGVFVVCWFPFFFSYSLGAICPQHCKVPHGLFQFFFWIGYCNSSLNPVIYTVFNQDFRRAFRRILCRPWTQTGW
T2 sequence (P22909 whole entry): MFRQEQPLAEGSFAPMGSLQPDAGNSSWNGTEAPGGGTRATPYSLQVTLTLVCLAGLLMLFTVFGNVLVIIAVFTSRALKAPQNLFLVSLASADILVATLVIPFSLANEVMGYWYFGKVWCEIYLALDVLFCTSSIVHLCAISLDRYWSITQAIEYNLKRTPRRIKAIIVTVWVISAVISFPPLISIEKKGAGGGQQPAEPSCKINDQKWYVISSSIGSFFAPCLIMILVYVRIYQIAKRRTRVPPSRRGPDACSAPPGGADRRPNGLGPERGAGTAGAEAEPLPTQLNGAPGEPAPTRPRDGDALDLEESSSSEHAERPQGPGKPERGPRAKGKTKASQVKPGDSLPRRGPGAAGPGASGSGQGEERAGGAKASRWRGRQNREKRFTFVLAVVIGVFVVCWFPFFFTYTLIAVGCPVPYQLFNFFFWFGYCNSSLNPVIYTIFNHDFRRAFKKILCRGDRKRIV

[4] = molecular target: T3, Adrenergic receptor alpha-1 (Rattus norvegicus, UniProt P15823+P23944+P43140); test: Binding affinity against Alpha-1 adrenergic receptor in rat brain membrane using [3H]prazosin as radioligand; type: cell membranes
T3 sequence (P15823 whole entry): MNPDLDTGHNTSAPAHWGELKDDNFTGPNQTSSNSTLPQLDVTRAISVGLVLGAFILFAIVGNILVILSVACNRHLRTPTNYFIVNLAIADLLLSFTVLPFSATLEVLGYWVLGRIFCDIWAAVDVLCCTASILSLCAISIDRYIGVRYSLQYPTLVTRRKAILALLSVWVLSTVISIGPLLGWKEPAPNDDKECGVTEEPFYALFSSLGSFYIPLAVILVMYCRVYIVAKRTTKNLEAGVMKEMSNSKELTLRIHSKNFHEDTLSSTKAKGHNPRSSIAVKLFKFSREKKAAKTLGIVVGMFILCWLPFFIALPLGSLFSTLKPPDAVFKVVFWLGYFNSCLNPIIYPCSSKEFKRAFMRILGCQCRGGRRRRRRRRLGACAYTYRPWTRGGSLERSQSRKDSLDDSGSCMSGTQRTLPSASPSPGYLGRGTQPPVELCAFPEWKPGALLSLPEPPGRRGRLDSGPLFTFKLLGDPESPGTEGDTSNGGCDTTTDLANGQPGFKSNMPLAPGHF
T3 sequence (P23944 whole entry): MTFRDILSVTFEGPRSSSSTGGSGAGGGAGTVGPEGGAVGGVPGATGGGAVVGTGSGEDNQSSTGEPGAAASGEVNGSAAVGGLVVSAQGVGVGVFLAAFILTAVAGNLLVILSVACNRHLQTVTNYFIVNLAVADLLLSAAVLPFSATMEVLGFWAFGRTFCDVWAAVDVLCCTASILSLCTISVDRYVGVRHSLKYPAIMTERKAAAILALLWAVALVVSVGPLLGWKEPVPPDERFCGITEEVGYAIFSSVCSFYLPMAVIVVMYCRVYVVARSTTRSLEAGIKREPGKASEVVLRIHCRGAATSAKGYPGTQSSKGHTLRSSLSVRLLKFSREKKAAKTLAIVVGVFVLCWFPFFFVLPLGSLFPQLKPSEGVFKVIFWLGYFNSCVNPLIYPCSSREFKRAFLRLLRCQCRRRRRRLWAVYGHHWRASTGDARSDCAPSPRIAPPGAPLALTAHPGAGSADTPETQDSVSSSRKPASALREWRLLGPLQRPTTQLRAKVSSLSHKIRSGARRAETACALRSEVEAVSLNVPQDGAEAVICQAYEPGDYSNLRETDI
T3 sequence (P43140 whole entry): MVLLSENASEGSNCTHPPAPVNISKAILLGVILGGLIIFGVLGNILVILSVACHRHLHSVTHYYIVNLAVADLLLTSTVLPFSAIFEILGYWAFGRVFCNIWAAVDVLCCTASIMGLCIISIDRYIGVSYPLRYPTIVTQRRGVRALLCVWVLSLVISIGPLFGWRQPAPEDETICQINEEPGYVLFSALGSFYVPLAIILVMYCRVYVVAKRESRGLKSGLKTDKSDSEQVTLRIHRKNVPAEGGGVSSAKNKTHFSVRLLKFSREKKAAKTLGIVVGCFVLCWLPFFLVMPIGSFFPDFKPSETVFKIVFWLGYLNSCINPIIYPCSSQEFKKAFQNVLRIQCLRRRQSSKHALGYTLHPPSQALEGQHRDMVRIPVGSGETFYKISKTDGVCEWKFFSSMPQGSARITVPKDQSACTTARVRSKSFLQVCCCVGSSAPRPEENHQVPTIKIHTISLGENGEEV

D(2) dopamine receptor [5] = molecular target: T4, D(2) dopamine receptor (Rattus norvegicus, UniProt P61169); test: Binding affinity against Dopamine receptor D2 in rat striatal membrane using [3H]spiroperidol as radioligand; type: cell membranes, Striatum
T4 sequence (P61169 whole entry): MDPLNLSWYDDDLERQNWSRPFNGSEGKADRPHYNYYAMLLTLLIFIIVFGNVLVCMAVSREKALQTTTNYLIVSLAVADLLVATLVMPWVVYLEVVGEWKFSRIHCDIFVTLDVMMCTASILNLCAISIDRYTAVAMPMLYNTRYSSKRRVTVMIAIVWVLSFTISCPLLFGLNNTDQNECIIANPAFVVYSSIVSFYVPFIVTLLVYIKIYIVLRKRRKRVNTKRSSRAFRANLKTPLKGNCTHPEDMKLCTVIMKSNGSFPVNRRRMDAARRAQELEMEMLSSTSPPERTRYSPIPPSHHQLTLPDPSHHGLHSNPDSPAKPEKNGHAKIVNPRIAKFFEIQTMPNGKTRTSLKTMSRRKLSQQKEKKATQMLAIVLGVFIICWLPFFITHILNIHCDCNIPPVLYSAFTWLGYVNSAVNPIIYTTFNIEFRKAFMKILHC

[6] = molecular target: T1, 5-hydroxytryptamine receptor 1A; test: Binding affinity against serotonin 5-hydroxytryptamine 1A receptor in rat hippocampus membrane using [3H]8-OH-DPAT as radioligand; type: cell membranes
D(2) dopamine receptor [7] = molecular target: T4, D(2) dopamine receptor; test: biochemical
Description: Binding affinity to rat Dopamine receptor D2 expressed in CHO cells was determined using [125 I ] iodosulpride as radioligand

| Compound | IC50 [1] [nM] | IC50 [2] [nM] | IC50 [3] [nM] | IC50 [4] [nM] | IC50 (D(2) dopamine receptor [5]) [nM] | IC50 [6] [nM] | IC50 (D(2) dopamine receptor [7]) [nM] |
| --- | --- | --- | --- | --- | --- | --- | --- |
| COc1cccc2c1CCCC2NC(=O)CCN1CCN(c2ccccn2)CC1 (stereo not drawn) | 135 | 726 | 1330 | 534 | 1900 |  |  |
| COc1cccc2c1CCCC2NCCN1CCN(c2ccccn2)CC1 (stereo not drawn) |  | 9140 | 95 | 725 | 1850 |  |  |
| COc1cccc2c1CCCC2NC(=O)CN1CCN(c2ccccc2)CC1 (stereo not drawn) |  | > 10000 | > 10000 | 5980 | > 10000 |  |  |
| COc1ccccc1N1CCN(CCN(C)C(=O)C2CCCc3c(OC)cccc32)CC1 (stereo not drawn) | 307 | 1070 | 183 | 297 | 332 |  |  |
| COc1cccc2c1CCCC2C(=O)NCCN1CCN(c2ccccn2)CC1 (stereo not drawn) |  | 1270 | 7220 | 838 | 2440 | 173 |  |
| COc1cccc2c1CCCC2C(=O)N(C)CCCN1CCN(c2ccccc2)CC1 (stereo not drawn) | 134 | 134 | 144 | 159 | 594 |  |  |
| COc1ccccc1N1CCN(CCCNC2CCCc3c(OC)cccc32)CC1 (stereo not drawn) | 10 | 3300 | 458 | 881 | 1060 |  |  |
| COc1cccc2c1CCCC2C(=O)N(C)CCN1CCN(c2ccccc2)CC1 (stereo not drawn) | 271 | 848 | 250 | 510 | 882 |  |  |
| COc1cccc2c1CCCC2C(=O)NCCCN1CCN(c2ccccn2)CC1 (stereo not drawn) | 95 | 428 | 746 | 327 | 819 |  |  |
| COc1cccc2c1CCCC2NC(=O)CCN1CCN(c2ccccc2)CC1 (stereo not drawn) | 311 | 1200 | 2680 | 313 | 2970 |  |  |
| COc1ccccc1N1CCN(CCN(C)C2CCCc3c(OC)cccc32)CC1 (stereo not drawn) | 8.7 | 1740 | 112 | 887 | 73 |  |  |
| CCCN(CCC)C1CCc2cccc(O)c2C1 (stereo not drawn) [8-OH-DPAT] |  | > 10000 | 810 |  |  |  | 5.2 |
| COc1cccc2c1CCCC2CNCCN1CCN(c2ccccc2)CC1 (stereo not drawn) | 116 | 1900 | 1420 | 1150 | 1100 |  |  |
| COc1cccc2c1CCCC2C(=O)NCCN1CCN(c2ccccc2)CC1 (stereo not drawn) |  | 1560 | 1850 | 427 | 4040 | 416 |  |
| COc1cccc2c1CCCC2CCCN1CCN(c2ccccc2)CC1 (stereo not drawn) |  | 230 | 260 | 43 |  | 0.5 | 110 |
| COc1cccc2c1CCCC2CCCN1CCN(c2ccccn2)CC1 (stereo not drawn) |  | 250 | 48 | 66 |  | 0.54 | 140 |
| COc1cccc2c1CCCC2NCCCN1CCN(c2ccccc2)CC1 (stereo not drawn) | 53 | 2690 | 788 | 626 | 2160 |  |  |
| COc1cccc2c1CCCC2NCCN1CCN(c2ccccc2)CC1 (stereo not drawn) | 92 | 2720 | 310 | 790 | 1200 |  |  |
| COc1ccccc1N1CCN(CCNC(=O)C2CCCc3c(OC)cccc32)CC1 (stereo not drawn) |  | 1710 | 1380 |  | 448 | 35 |  |
| COc1ccccc1N1CCN(CCCC2CCCc3c(OC)cccc32)CC1 (stereo not drawn) |  | 330 | 17 | 6.5 |  | 0.77 |  |
| COc1ccccc1N1CCN(CCCNC(=O)C2CCCc3c(OC)cccc32)CC1 (stereo not drawn) |  | 2040 | 564 | 84 | 116 | 16 |  |
| COc1cccc2c1CCCC2C(=O)NCCCN1CCN(c2ccccc2)CC1 (stereo not drawn) |  | 349 | 186 | 19 | 783 | 63 |  |
| COc1ccccc1N1CCN(CCC(=O)NC2CCCc3c(OC)cccc32)CC1 (stereo not drawn) |  | 841 | 1250 | 153 | 761 |  |  |
